Data reported in ChEMBL document CHEMBL1127805 (J Med Chem, 1994).
Each block holds one compound with its values, some of them ahead of it.

Tests used:
Glutamate NMDA receptor [1] = assay: In vitro inhibition of [3H]glycine at NMDA receptor; format: protein-complex assay
Glutamate NMDA receptor [2] = assay: Compound was evaluated for in vitro inhibition of [3H]MK-801 at NMDA receptor; format: protein-complex assay
Mus musculus [3] = assay: In vivo antagonist activity against seizures elicited by audiogenic administered intra peritoneally in mice; format: functional
Mus musculus [4] = assay: In vivo antagonist activity against seizures elicited by audiogenic administered icv in mice; format: functional
Mus musculus [5] = assay: In vivo antagonist activity against seizures elicited by audiogenic, administered perorally in mice; format: functional; details: po
Mus musculus [6] = assay: In vivo antagonist activity against seizures elicited by audiogenic, administered intra peritoneally in mice; format: functional
Mus musculus [7] = assay: Compound was evaluated for nociception in electroshock mice model in vivo through ip route; format: functional
[8] = target: T1, Glutamate receptor ionotropic, NMDA 1 (Rattus norvegicus, UniProt P35439); assay: Compound was evaluated for in vitro inhibition of cortical slice at NMDA receptor
[9] = target: T1, Glutamate receptor ionotropic, NMDA 1; assay: Compound was evaluated for in vitro inhibition of [3H]L-689,560 at NMDA receptor.
[10] = target: T2, Glutamate receptor ionotropic, NMDA 2C (Rattus norvegicus, UniProt Q00961); assay: Compound was evaluated for in vitro inhibition of cortical slice release at NMDA receptor.
[11] = target: T2, Glutamate receptor ionotropic, NMDA 2C; assay: Compound was evaluated for in vitro inhibition of [3H]-GABA release at NMDA receptor.
Mus musculus [12] = assay: Compound was evaluated for audiogenic seizure in vivo through intra peritoneal route; format: functional
Glutamate NMDA receptor [13] = assay: Compound was evaluated for in vitro inhibition of [3H]TCP at NMDA receptor; format: protein-complex assay
Mus musculus [14] = assay: Separation-induced vocalization in vivo through ip route; format: functional
Mus musculus [15] = assay: Antagonist activity in audiogenic seizure model in vivo through icv route; format: functional
Gerbillinae = assay: Compound was evaluated for neuroprotection, in gerbil seizure model in vivo through intraperitoneal route; format: functional
[16] = target: T1, Glutamate receptor ionotropic, NMDA 1; assay: Compound was evaluated for in vitro inhibition of cGMP cerebellar slice at NMDA receptor.
[17] = target: T1, Glutamate receptor ionotropic, NMDA 1; assay: Compound was evaluated for in vitro inhibition of spinal cord at NMDA receptor.

T2 sequence (Q00961 whole entry): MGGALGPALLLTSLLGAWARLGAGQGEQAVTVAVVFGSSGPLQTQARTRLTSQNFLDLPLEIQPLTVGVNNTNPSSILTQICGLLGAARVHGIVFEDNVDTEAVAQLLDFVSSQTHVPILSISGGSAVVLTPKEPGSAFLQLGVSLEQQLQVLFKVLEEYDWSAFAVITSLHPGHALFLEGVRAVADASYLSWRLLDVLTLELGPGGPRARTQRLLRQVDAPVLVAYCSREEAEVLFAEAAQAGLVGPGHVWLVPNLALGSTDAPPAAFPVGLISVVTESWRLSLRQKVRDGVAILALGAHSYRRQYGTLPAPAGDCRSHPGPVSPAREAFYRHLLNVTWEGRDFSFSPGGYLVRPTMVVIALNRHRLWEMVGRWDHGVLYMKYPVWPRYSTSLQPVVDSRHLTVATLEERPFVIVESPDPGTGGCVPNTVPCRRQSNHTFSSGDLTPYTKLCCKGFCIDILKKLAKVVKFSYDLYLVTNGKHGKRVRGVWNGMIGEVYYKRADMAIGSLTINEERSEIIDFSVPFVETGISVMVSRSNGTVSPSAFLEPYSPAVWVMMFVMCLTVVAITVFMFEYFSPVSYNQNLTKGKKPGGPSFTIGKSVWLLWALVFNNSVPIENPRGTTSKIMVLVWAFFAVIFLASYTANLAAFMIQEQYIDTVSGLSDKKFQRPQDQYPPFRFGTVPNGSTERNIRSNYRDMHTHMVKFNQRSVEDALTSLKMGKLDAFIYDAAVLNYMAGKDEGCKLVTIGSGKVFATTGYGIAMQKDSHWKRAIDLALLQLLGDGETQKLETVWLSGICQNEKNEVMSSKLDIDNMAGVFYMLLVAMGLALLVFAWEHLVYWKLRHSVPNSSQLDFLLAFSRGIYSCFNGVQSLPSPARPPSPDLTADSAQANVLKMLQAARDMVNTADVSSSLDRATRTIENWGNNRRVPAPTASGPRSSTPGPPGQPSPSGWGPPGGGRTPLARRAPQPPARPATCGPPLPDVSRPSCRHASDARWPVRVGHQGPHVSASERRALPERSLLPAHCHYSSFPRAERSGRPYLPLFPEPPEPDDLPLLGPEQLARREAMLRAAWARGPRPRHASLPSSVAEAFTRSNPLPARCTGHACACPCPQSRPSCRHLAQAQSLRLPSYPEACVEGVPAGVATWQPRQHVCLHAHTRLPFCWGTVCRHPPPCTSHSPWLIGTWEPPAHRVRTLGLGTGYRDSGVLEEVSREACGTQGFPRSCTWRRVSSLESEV

Structure (SMILES): N[C@@H](/C=C/CCO)C(=O)O
IC50 (Glutamate NMDA receptor [1]): 750 nM
EC50 (Glutamate NMDA receptor [2]): 930 nM

Structure (SMILES): NC(Cc1ccc(CC(=O)N[C@H]2C[C@H](C(=O)O)Nc3cc(Cl)cc(Cl)c32)cc1)C(=O)O (stereo partly drawn)
ED50 (Mus musculus [3]): 29 mg/kg
ED50 (Mus musculus [4]): 0.5

Structure (SMILES): O=c1[nH]c2cc(Cl)c(Cl)c([N+](=O)[O-])c2[nH]c1=O [LICOSTINEL]
ED50 (Mus musculus [7]): 5 mg/kg

Structure (SMILES): O=[N+]([O-])c1cc([N+](=O)[O-])c2nc(O)c(O)nc2c1
IC50 (Glutamate NMDA receptor [1]): 1000 nM
IC50 [9]: 170 nM
IC50 [10]: 400 nM
EC50 [11]: 400 nM

Structure (SMILES): CC(CN(C)C)OC(=O)c1cc(O)c2c(Cl)cc(Cl)cc2n1 (stereo not drawn)
ED50 (Mus musculus [12]): 62 mg/kg

Structure (SMILES): O=C(O)c1cc(O)c2c(Cl)cc(Cl)cc2n1
ED50 (Mus musculus [3]): > 250 mg/kg
ED50 (Mus musculus [14]): 67 mg/kg
ED50 (Mus musculus [15]): 7.5 nM

Structure (SMILES): O=c1[nH]c2cc([N+](=O)[O-])c([N+](=O)[O-])cc2[nH]c1=O [DNQX]
IC50 (Glutamate NMDA receptor [1]): 1300 nM

Structure (SMILES): O=C(c1c(O)nc2cc(Cl)ccc2c1O)C1CC1
ED50 (Mus musculus [3]): 4.1 mg/kg

Structure (SMILES): COC(=O)[C@H]1C[C@H](NC(=O)Cc2ccc(CN)cc2)c2c(Cl)cc(Cl)cc2N1
ED50 (Mus musculus [3]): 32 mg/kg

Further lines, with some results ahead:

IC50 (Glutamate NMDA receptor [1]): 1.4 nM
Structure (SMILES): O=c1[nH]c2cc(Cl)ccc2c(O)c1-c1cccc(Oc2ccsc2)c1
ED50 (Mus musculus [5]): 0.9 mg/kg
ED50 (Mus musculus [6]): 0.8 mg/kg

IC50 (Glutamate NMDA receptor [1]): 110 nM
Structure (SMILES): CN(C(=O)c1ccccc1)c1c(C(=O)O)[nH]c2cc(Cl)ccc12

IC50 (Glutamate NMDA receptor [1]): 800 nM
Structure (SMILES): O=C(O)c1nc2c(Cl)cc(Cl)cc2[nH]1

EC50 [8]: 140000 nM
Structure (SMILES): O=C(O)CSc1c(C(=O)O)[nH]c2cc(Cl)cc(Cl)c12

IC50 (Glutamate NMDA receptor [1]): 7.8 nM
Structure (SMILES): O=C(Nc1ccccc1)N[C@H]1C[C@H](C(=O)O)Nc2cc(Cl)cc(Cl)c21
ED50 (Mus musculus [3]): > 100 mg/kg

IC50 (Glutamate NMDA receptor [1]): 6000 nM
Structure (SMILES): Oc1nc2cc(Cl)c(Cl)cc2n2ccnc12

IC50 (Glutamate NMDA receptor [1]): 36000 nM
EC50 (Glutamate NMDA receptor [13]): 3600 nM
IC50 (Glutamate NMDA receptor [13]): 780000 nM
Structure (SMILES): NCC(=O)Nn1ccc2ccccc21

IC50 (Glutamate NMDA receptor [1]): 8 nM
Structure (SMILES): O=C(O)C1Nc2cc(Cl)cc(Cl)c2S(=O)(=O)N1Cc1cccc(Br)c1 (stereo not drawn)

IC50 (Glutamate NMDA receptor [1]): 100 nM
Structure (SMILES): O=c1[nH][nH]c(=O)c2c(O)c3c(Cl)cc(Cl)cc3nc12
MED50 (Gerbillinae): 10 mg/kg

IC50 (Glutamate NMDA receptor [1]): 240 nM
EC50 (Glutamate NMDA receptor [2]): 330 nM
Structure (SMILES): N[C@H](/C=C/CCO)C(=O)O

IC50 [16]: 2700 nM
Structure (SMILES): O=C(O)CCc1c(C(=O)O)[nH]c2cc(Cl)cc(Cl)c12
ED50 (Mus musculus [3]): 100 mg/kg
ED50 (Mus musculus [4]): 0.09 µg

IC50 (Glutamate NMDA receptor [1]): 11 nM
IC50 [17]: 2100 nM
Structure (SMILES): Oc1ccc(-c2c(O)nc3cc(Cl)cc(Cl)c3c2O)cc1
